Source: patent US20240294522A1 (Lead Discovery Center GmbH, priority 2021, published 2024)

Assays:
GRK5 = molecular target: T1, GRK5 (Homo sapiens, UniProt P34947); test: Lance Kinase Activity Assay, GRK5; settings: biochemical Lance kinase activity assay; class symbols A-F; read-out: GRK5 LANCE Assay (IC-50)
T1 construct: purchased Thermo Scientific
How it was run: (§1)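 IC50s from sigmoidal dose-response over 0.0025-10 μM compound, with phosphorylated ULight substrate detected by Eu anti-phospho antibody FRET after EDTA quench.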

GRK2 = molecular target: T2, GRK2 (Homo sapiens, UniProt P25098); test: Lance Kinase Activity Assay, GRK2; settings: biochemical Lance kinase activity assay; class symbols A-F; read-out: GRK2 LANCE Assay (IC-50)
T2 construct: purchased Thermo Scientific
T2 sequence (P25098 1-689): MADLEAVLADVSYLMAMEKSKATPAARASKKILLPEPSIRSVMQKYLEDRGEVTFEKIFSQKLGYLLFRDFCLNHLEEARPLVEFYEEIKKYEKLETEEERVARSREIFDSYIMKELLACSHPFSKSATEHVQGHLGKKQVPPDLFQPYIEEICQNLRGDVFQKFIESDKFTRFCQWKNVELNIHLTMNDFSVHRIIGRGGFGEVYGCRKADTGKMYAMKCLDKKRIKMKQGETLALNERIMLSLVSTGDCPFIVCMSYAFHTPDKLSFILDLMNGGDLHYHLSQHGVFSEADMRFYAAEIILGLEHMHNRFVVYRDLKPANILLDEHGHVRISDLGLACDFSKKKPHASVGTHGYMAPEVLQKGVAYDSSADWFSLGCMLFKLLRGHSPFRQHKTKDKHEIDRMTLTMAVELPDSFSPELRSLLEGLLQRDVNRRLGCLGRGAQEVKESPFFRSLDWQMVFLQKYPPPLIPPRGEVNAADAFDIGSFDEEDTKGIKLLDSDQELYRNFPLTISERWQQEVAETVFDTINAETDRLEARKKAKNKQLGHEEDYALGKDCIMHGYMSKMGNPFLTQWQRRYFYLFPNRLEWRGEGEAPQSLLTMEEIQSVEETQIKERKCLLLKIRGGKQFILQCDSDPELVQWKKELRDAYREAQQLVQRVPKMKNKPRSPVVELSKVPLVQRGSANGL
How it was run: as §1

T1 sequence (P34947 whole entry): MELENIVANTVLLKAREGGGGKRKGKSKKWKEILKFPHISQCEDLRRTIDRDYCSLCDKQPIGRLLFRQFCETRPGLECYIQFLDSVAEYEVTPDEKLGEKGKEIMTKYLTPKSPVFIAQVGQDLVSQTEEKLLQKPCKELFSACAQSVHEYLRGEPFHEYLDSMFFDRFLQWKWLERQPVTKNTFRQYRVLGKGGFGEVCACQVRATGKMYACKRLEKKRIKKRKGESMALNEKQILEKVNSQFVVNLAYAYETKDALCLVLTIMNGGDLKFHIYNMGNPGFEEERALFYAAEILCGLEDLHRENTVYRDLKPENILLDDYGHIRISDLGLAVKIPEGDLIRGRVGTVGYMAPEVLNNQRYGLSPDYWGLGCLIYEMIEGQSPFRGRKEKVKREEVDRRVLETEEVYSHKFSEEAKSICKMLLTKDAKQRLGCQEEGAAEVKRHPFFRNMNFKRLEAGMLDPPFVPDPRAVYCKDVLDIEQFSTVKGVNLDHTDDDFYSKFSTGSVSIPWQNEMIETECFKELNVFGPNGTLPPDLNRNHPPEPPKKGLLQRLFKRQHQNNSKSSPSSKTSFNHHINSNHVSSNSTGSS

SMILES | IC50 (GRK5) [µM] | IC50 (GRK2) [µM]
COc1ccc([C@@H](C)NC(=O)/C=C/c2c[nH]c3nccc(-c4cnn5ccccc45)c23)cc1OC [Example 242, (R,E)-N-(1-(3,4-dimethoxyphenyl)ethyl)-3-(4-(pyrazolo[1,5-a]pyridin-3-yl)-1H-pyrrolo[2,3-b]pyridin-3-yl)acrylamide] | 0.1 to 0.5 | > 10
COc1ccc([C@@H](C)NC(=O)/C=C/c2c[nH]c3nccc(-c4cccc(CNC(C)=O)c4)c23)cc1OC [Example 243, (R,E)-3-(4-(3-(acetamidomethyl)phenyl)-1H-pyrrolo[2,3-b]pyridin-3-yl)-N-(1-(3,4-dimethoxyphenyl)ethyl)acrylamide] | 0.1 to 0.5 | > 10
COc1ccc([C@@H](C)NC(=O)/C(C#N)=C/c2c[nH]c3ncc(-c4ccc(N5CCN(C)CC5)cc4)c(C)c23)cc1OC [Example 244, (R,E)-2-cyano-N-(1-(3,4-dimethoxyphenyl)ethyl)-3-(4-methyl-5-(4-(4-methylpiperazin-1-yl)phenyl)-1H-pyrrolo[2,3-b]pyridin-3-yl)acrylamide] | 0.5 to 1 | 1 to 10
COc1ccc([C@@H](C)NC(=O)/C(C#N)=C/c2c[nH]c3ncc(-c4ccc(F)c(S(C)(=O)=O)c4)c(C)c23)cc1OC [Example 245, (R,E)-2-cyano-N-(1-(3,4-dimethoxyphenyl)ethyl)-3-(5-(4-fluoro-3-(methylsulfonyl)phenyl)-4-methyl-1H-pyrrolo[2,3-b]pyridin-3-yl)acrylamide] | 0.5 to 1 | > 10
C[C@@H](NC(=O)/C=C/c1c[nH]c2ncc(-c3cnn(C)c3)cc12)c1ccc2c(c1)OCO2 [Example 246, (R,E)-N-(1-(benzo[d][1,3]dioxol-5-yl)ethyl)-3-(5-(1-methyl-1H-pyrazol-4-yl)-1H-pyrrolo[2,3-b]pyridin-3-yl)acrylamide] | ≤ 0.05 | 1 to 10
COc1ccc([C@@H](C)NC(=O)/C=C/c2c[nH]c3ncc(-c4cc(Cl)cc(S(C)(=O)=O)c4)cc23)cc1OC [Example 247, (R,E)-3-(5-(3-chloro-5-(methylsulfonyl)phenyl)-1H-pyrrolo[2,3-b]pyridin-3-yl)-N-(1-(3,4-dimethoxyphenyl)ethyl)acrylamide] | ≤ 0.05 | > 10
COc1ccc([C@@H](C)NC(=O)/C=C/c2c[nH]c3ncc(-c4cc(S(C)(=O)=O)ccc4C)cc23)cc1OC [Example 248, (R,E)-N-(1-(3,4-dimethoxyphenyl)ethyl)-3-(5-(2-methyl-5-(methylsulfonyl)phenyl)-1H-pyrrolo[2,3-b]pyridin-3-yl)acrylamide] | ≤ 0.05 | > 10
COc1ccc([C@@H](C)NC(=O)/C=C/c2c[nH]c3ncc(-c4cc(F)cc(S(C)(=O)=O)c4)cc23)cc1OC [Example 249, (R,E)-N-(1-(3,4-dimethoxyphenyl)ethyl)-3-(5-(3-fluoro-5-(methylsulfonyl)phenyl)-1H-pyrrolo[2,3-b]pyridin-3-yl)acrylamide] | ≤ 0.05 | 1 to 10
COc1ccc([C@@H](C)NC(=O)/C=C/c2c[nH]c3ncc(-c4ccnc(S(C)(=O)=O)c4)cc23)cc1OC [Example 250, (R,E)-N-(1-(3,4-dimethoxyphenyl)ethyl)-3-(5-(2-(methylsulfonyl)pyridin-4-yl)-1H-pyrrolo[2,3-b]pyridin-3-yl)acrylamide] | ≤ 0.05 | 1 to 10
COc1ccc([C@@H](C)NC(=O)/C=C/c2c[nH]c3ncc(-c4cccc(S(C)(=N)=O)c4)cc23)cc1OC (stereo partly drawn) [Example 251, (E)-N-((R)-1-(3,4-dimethoxyphenyl)ethyl)-3-(5-(3-(S-methylsulfonimidoyl)phenyl)-1H-pyrrolo[2,3-b]pyridin-3-yl)acrylamide] | ≤ 0.05 | 0.5 to 1
COc1ccc(C(C)NC(=O)/C=C/c2c[nH]c3ncc(-c4cnn(C)c4)cc23)cc1C1CC1 (stereo not shown) [Example 253, (E)-N-(1-(3-cyclopropyl-4-methoxyphenyl)ethyl)-3-(5-(1-methyl-1H-pyrazol-4-yl)-1H-pyrrolo[2,3-b]pyridin-3-yl)acrylamide] | 0.05 to 0.1 | > 10
